Data taken from PubChem BioAssay AID849 (SRMLSC, 2007).
pIC50: −log10 of the molar value. Active and inactive are the calls of the source. No rule for the calls is given here.

The molecules below were run on Saccharomyces cerevisiae lifespan shortening, growth inhibition (assay: yeast lifespan shortening compounds, dose response (AID 849);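 also: yeast growth read as optical density after two days at 30 degrees C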).

Compound | pIC50 | IC50
CC(C)(Oc1ccc(Cl)cc1)C(=O)NC1=NN(c2ccccc2)C(=O)C1 | 4.74 | –
O=C1CN(CC(=O)N2CCCCC2)c2ccccc2O1 | 4.36 | –
CCOc1ccc(NCc2nc3ccccc3n2CCOc2ccccc2)cc1 | – | > 100 µM (inactive)
Cc1ccc(CNC(=O)CS(=O)Cc2nc(-c3cccs3)oc2C)cc1 (stereo unspecified) | – | > 100 µM (inactive)
Nc1c(C(=O)NCCc2ccccc2)c2nc3ccccc3nc2n1CCN1CCOCC1 | 4.65 | –
OC(COc1ccc2ccccc2c1Br)Cn1cnc(-c2ccccc2)c1 (stereo unspecified) | 4.31 | –
Cc1nc2ccc(NC(=O)c3cc([N+](=O)[O-])cc([N+](=O)[O-])c3Cl)cc2s1 | 4.54 | –
O=C(N/N=C1\CC2CC=CC12)c1ccc(COc2ccccc2)cc1 (stereo unspecified) | – | > 100 µM (inactive)
CCCCCCCCCCCCCCCC[n+]1cccc2ccccc21 | 6.11 | –
CCN1/C(=C(\O)c2ccccc2)C(=O)c2ccccc2S1(=O)=O | – | > 100 µM (inactive)
CCOc1ccc(-c2[nH]ncc2Oc2cccc(OC)c2)c(O)c1 | 4.64 | –
Cc1ccc(/C(N)=N/OC(=O)c2ccc(C)cc2Cl)cc1 | 4.83 | –
O=S(=O)(Cc1ccccc1)NCc1cccnc1 | – | > 100 µM (inactive)
O=C1C2C3C=CC(CO)(O3)C2C(=O)N1c1ccccc1-c1ccccc1 (stereo unspecified) | – | > 100 µM (inactive)
Fc1ccc(-c2ccc(-c3nn4c(-c5ccco5)nnc4s3)o2)cc1 | – | > 100 µM (inactive)
CC(C)(C)c1ccc(-c2nc(-c3ccncc3)no2)cc1 | 4.64 | –
CCCCc1ccc(NC(=S)Nc2ccc(Nc3ccc(OC)cc3)cc2)cc1 | 4.48 | –
COc1ccccc1OCCCc1c(C)n[nH]c1C | 5.06 | –
NNC(=O)c1cccc(COc2ccc3c(c2)CCC3)c1 | 4.76 | –
Cc1ccc(NC(=O)CSC2=C(C#N)C(c3ccc4c(c3)OCO4)C3=C(CCCC3=O)N2)c(C)c1 (stereo unspecified) | – | > 100 µM (inactive)
CC(C)(C)C(=O)O/N=C1/C(=O)N(c2ccccc2)c2ccccc21 | 4.51 | –
O=c1cc(-c2ccccc2)n(S(=O)(=O)c2ccccc2)o1 | 4.40 | –
Nc1ccc(C(=O)OCC(=O)Nc2ccc3c(c2)OCO3)cc1[N+](=O)[O-] | – | > 100 µM (inactive)

Compound | pIC50 | IC50
Cc1ccccc1NC(=S)c1nc2ccccc2[nH]1 | 4.53 | –
COc1ccc(NC(=O)CC2SC(=Nc3ccccc3)NC2=O)c(OC)c1 (stereo unspecified) | – | > 100 µM (inactive)
O/N=C/c1ccc(OCc2ccccc2)c(Br)c1 | – | > 100 µM (inactive)
Cc1cc(O)c(/C=N/Nc2ccccc2Cl)c(=O)o1 | 4.53 | –
CCc1ccc(C2NC(=S)NC3=C2C(=O)N(c2ccccc2OC)C(c2ccc(CC)cc2)N3)cc1 (stereo unspecified) | – | > 100 µM (inactive)
Cc1ncc(CC(=O)n2cc(C(=O)c3cc(Cl)ccc3O)cn2)s1 | 4.92 | –
O=c1[nH]c2ccccc2c2nc3ccccn3c12 | 4.40 | –
CCSc1nnc(NC(=O)c2ccccn2)s1 | 5.01 | –
O=C(O)c1cc2c(ccc3ccccc32)oc1=O | 4.93 | –
O=C(Nc1nc(-c2ccccn2)cs1)C1COc2ccccc2O1 (stereo unspecified) | 4.90 | –
CC(C)(C)c1cc(C(c2cccnc2)N2CCN(CCO)CC2)cc(C(C)(C)C)c1O (stereo unspecified) | 4.76 | –
COC1=C(c2ccccc2)C(=O)c2ccccc2C1=O | 4.79 | –
O=C(O)Cc1ccc2sc(-c3ccccc3)nc2c1 | – | > 100 µM (inactive)
C/C(=N\NC(=O)c1ccc(CSc2cccc3cccnc23)cc1)C1CCCCC1 | 4.47 | –
Nc1nc2sc3c(c2c(=O)s1)CCCC3 | – | > 100 µM (inactive)
COC(=O)Cn1c2ccccc2c2nc(C)sc21 | – | > 100 µM (inactive)
CCN(CC)c1ccc(S(=O)(=O)N2CCOCC2)cc1NC(=O)CSc1cccc[n+]1[O-] | 4.78 | –
O=c1c2cccc3c2c(nn1CN1CCOCC1)-c1ccccc1-3 | 4.63 | –
Cc1ccc(N=Nc2ccc(O)c3ncccc23)cc1 | 4.46 | –
C=CCNC1=C(Cl)C(=O)c2ccccc2C1=O | – | > 100 µM (inactive)
Cc1ccc2c(c1)C(=NC1CCCCC1)c1cc3ccccc3nc1-2 | 4.38 | –
N/C(Cc1ccccc1)=N\OC(=O)c1cccc2ccccc12 | 4.97 | –
Cc1ccccc1N=Cc1cccc(O)c1O | 5.00 | –
